Entries after “also recorded” stand apart in the source; their conditions may differ.
Experiments:
ALK3 = ALK3 (Homo sapiens, UniProt P36894); assay: kinase assay (biochemical IC50, literature); settings: concentration of 200 nM
[1] = test system: articular cartilage of DMM mice; assay: DMM model of post-traumatic OA: Safranin-O/Fast Green staining and OARSI scoring of articular cartilage damage; assay type: in vivo, mouse; settings: for articular cartilage damage (SOFG staining, OARSI scoring): treatment from the time of DMM surgery, weekly, compared to PBS
Description: FIG. 13. Growth differentiation factor 11 (GDF11, see, e.g., NCBI Reference Sequence: NP_005802.1) competes with BMP9/10 for binding to BMP type II receptors ACVRIIA or ACVRIIB, thereby preventing the association of BMP type I receptor ALK1 with ACVRIIA/B and decreasing BMP signaling. […] We tested this hypothesis by locally injecting GDF11 (50 ng/dose) into the knee joint space at mice with established post-traumatic OA. (A) Experimental Outline (B) Safranin-O/Fast Green (SOFG) Staining of sagittal sections of the knee joint, femur (top) and tibia (bottom) for proteoglycan (cartilage; red) and bone (green) at week 8 after DMM or Sham surgery. Mice were treated with either GDF11, or Phosphate Buffered Saline (PBS) after received surgery (n=5/group). 4-Week DMM mice were sacrificed 4 weeks after surgery and received no treatment (n=6). AC damage indicated by dotted line. (C-D) Osteoarthritis Research Society International (OARSI) scoring of AC damage in the (C) medial tibial plateau and (D) medial femoral condyle in representative sections of each treatment at week 4 or 8 after surgery. All data are shown as mean bar+/−standard deviation *p<0.05. Data analysis performed was one-way ANOVA. Scale 250 uM.
(§1) Mice (C57BL/6J) were purchased from The Jackson Laboratory. All mice were housed on a 12-hour light/dark cycle with unrestricted access to standard mouse food and water. The DMM model of injury induced OA was performed on mice at 12 weeks of age by opening the joint capsule and transecting the medial meniscotibial ligament in the right knee, destabilizing the medial meniscus(48). A sham operation was performed on the left knee of each mouse by observing the medial meniscotibial ligament but not transecting it. Mice were administered carprofen 5 mg/kg (Zoetis; 1041283) subcutaneously 30 minutes prior to surgery, immediately post-surgery, and 24 hours post-surgery to minimize pain.
(§2) Treatments were initiated either 1 day after DMM surgery once a week for 8 weeks, or 1 month after DMM surgery twice a week for 4 weeks. Mice were sacrificed at 20 weeks of age (2 months after surgery). To understand the level of articular cartilage damage 1 month after DMM surgery, a cohort of mice was sacrificed at 16 weeks old (FIG. 4).
Knee joint samples were harvested and fixed in 4% Paraformaldehyde for 3 days, and subsequently decalcified in formic acid (Statlab; 1414-32) for 3 days and embedded in paraffin. Sagittal sections 7 micrometers in thickness were taken and stained using Safranin-O (Sigma-Aldrich; S8884-25G), fast green (Sigma-Aldrich; F7258-25G), and hematoxylin (Fisherbrand; 245-656) using a standard histology protocol. Images were taken with the Olympus BX60 brightfield microscope using a 10× objective lens. Representative sections throughout the medial and lateral portion of side were chosen for histological analysis, resulting in 5 sections being imaged for both portions of the joint.
The 10 total sections per joint chosen for histology received randomized sample numbers and were given to three independent researchers who scored the level of cartilage damage based on OARSI guidelines (84). OARSI scores were analyzed with Prism 9 Software (GraphPad) using two-way ANOVA and Tukey's multiple comparisons test post-hoc. Scoring was performed by at least three experienced investigators blinded to treatment/genotype. Scores were averaged for the medial tibial plateau, medial femoral condyle, lateral tibial plateau, and lateral femoral condyle for each sample.

Collagen-X (COL10) = assay: Immunohistochemistry of articular cartilage in DMM mice; assay type: in vivo, mouse
Description: as §1, §2
(§3) Seven micrometer-thick representative sections were chosen for immunohistochemistry, using a standard protocol (35). Tissue sections were deparaffinized, rehydrated, and washed in sodium borohydride (Sigma-Aldrich; 480886). Sections were then incubated with hyaluronidase (Sigma-Aldrich; H3505) and blocked with 5% serum in 1% PBST. Tissue sections were treated with primary antibodies to mouse ALK1 (R&D; AF770), Phospho-SMAD1/5 (Cell Signaling Technology; 9516), Phospho-SMAD2 (Cell Signaling Technology; 3108), MMP13 (Abcam; ab260040), and COL10 (Abcam; […]) and incubated overnight. Sections were then treated with a dilution of secondary antibody goat anti-rabbit IgG (H+L) Cross-Adsorbed Secondary Antibody, Alexa Flour 488 (Invitrogen; A-11008) or donkey anti-goat IgG (H+L) Cross-Adsorbed Secondary Antibody, Alexa Flour 488 (Invitrogen; A11055) for 4 hours. Finally, sections were incubated with 0.1 ug/mL of DAPI for 10 minutes before being mounted with Fluoro-Gel (Electron Microscopy Sciences; 17985-31). Images were taken with the Nikon Eclipse Ti fluorescent microscope.

[2] = test system: Matrix Metalloproteinase-13 (MMP13); assay: as above; assay type: in vivo, mouse
Description: as §1, §2, §3

pSMAD1/5 = assay: as above; assay type: in vivo, mouse
Description: as §1, §2, §3

pSMAD2/3 = assay: as above; assay type: in vivo, mouse
Description: as §1, §2, §3

[3] = test system: OA associated pain in DMM mice; assay: Von Frey pain assessment (50% paw withdrawal threshold) in DMM mice; assay type: in vivo, mouse
Description: In a functional assessment of BMP-KI and ALK1-Fc, we measured pain and sensitivity in mice following DMM surgery and treatment with BMP-KI and ALK1-Fc using Von Frey analysis. Mice underwent DMM surgery at 3 months of age and were treated with BMP-KI or ALK1Fc once a week for 8 weeks following surgery. Mice underwent Von Frey testing immediately prior to surgery, and each week following surgery. Von Frey testing involved exposure of the injured limb hindfoot plantar surface to a monofilament of a designated caliber (measured in grams). […] The 50% PWT was then calculated mathematically as previously described(54). A higher 50% paw withdrawal threshold indicates less sensitivity in the surgically treated limb. Mice undergoing sham surgery were also tested as a control.
Pain was assessed using the 50% paw withdrawal threshold (PWT) using Von Frey filaments and the up-and-down method as described(86, 87). Each mouse was tested three times by evaluators blinded to treatment group, and the average value was calculated. Whether or not each of the three acquired values is normal is based on the Jarque-Baera test. 4-5 mice were analyzed per treatment condition. Significance was assessed using two-way ANOVA and Tuckey's multiple comparisons test.

[4] = delayed treatment, week 8, vs vehicle-treated mice examined 4 weeks after surgery
[5] = treated 1 month after DMM surgery
[6] = treatment immediately after DMM surgery, week 8, listed as BMP-KI
[7] = delayed administration (1 month after DMM surgery)
[8] = treatment immediately after DMM surgery, week 8

ALK3, sequence (P36894 24-532, species assumed): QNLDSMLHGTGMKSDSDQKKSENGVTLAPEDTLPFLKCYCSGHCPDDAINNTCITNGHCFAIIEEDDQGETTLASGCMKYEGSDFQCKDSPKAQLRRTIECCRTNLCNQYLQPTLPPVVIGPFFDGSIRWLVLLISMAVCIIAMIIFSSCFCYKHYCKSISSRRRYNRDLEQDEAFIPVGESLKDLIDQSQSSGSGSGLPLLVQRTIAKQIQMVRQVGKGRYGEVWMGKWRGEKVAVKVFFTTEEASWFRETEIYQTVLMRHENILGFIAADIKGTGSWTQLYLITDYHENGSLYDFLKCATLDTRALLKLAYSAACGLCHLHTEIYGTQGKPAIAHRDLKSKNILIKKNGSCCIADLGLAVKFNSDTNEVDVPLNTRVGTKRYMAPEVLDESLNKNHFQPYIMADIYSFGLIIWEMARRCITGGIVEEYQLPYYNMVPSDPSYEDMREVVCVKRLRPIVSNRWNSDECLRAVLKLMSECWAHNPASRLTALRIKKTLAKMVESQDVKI

COc1cc(-c2cc(-c3ccc(N4CCNCC4)cc3)cnc2C)cc(OC)c1OC [LDN-214117]
effect on ALK3 at the injected concentration (ALK3): < 25 % IC50
articular cartilage damage, femoral surface [1, 4]: less damage
articular cartilage damage, tibial surface [1, 4]: less damage
articular cartilage damage (OARSI scoring) ([1]; treatment beginning 4 weeks after DMM, examined 8 weeks after surgery, vs vehicle-treated mice at 8 weeks): significantly less damage
articular cartilage damage (SOFG staining, OARSI scoring) ([1]; week 8): sufficient to prevent degradation of AC
articular cartilage damage (SOFG staining, OARSI scoring) ([1]; week 8, listed as BMP-KI): protection of articular cartilage
COL10 levels (percentage of cells expressing) (Collagen-X (COL10); [5]): significantly decreased
COL10 levels (percent of cells expressing) (Collagen-X (COL10); [6]): significantly decreases levels of expression; also recorded: visibly reduced
MMP13 levels (percentage of cells expressing) [2, 5]: attenuated to those of healthy sham control AC
MMP13 levels (percent of cells expressing) [2, 6]: significantly decreases levels of expression; also recorded: visibly reduced
percentage of cells positive for pSMAD1/5 (pSMAD1/5; [7]): reduced
pSMAD1/5 expression in articular cartilage (pSMAD1/5; [8]): reduced to normal levels
percent cells positive for pSMAD2/3 (pSMAD2/3; [7]): not rescued
pSMAD2/3 expression in articular cartilage (pSMAD2/3; [8]): not restored to normal levels
pain (Von Frey 50% paw withdrawal threshold) ([3]; week 6 after surgery, vs DMM control): did not exhibit an increase in pain
pain (Von Frey) compared to mice that had received sham surgery ([3]; week 8): no significant difference
